Laboratory results: patent US9907799B2, “Tau aggregation inhibitor” (THE DOSHISHA, priority 2013, dated 2018)

Biological target: T1, human-type tau 0N4R isoform (recombinant tau) (Homo sapiens, UniProt P10636)
T1 construct: Fractions including full-length recombinant tau were mixed together; made in house; host or cells: E. coli BL21(DE3)
Test: sucrose density-gradient centrifugation fractionation of polymerized tau, electrophoresis and Western blotting
Assay type: biochemical
Details: 10 μM
Protocol: (§1) First of all, a plasmid expressing human-type tau 0N4R isoform (383 amino acid) was introduced into E. coli BL21(DE3) strain to purify a recombinant tau. The purification was carried out by modifying the method of Taniguchi et al. (see Taniguchi et al., 2008, JBC, 280, 7614). A soluble fraction was prepared based on E. coli in which tau expression had been induced with isopropyl-β-thiogalactopyranoside, and then fractionation was carried out with a phosphocellulose column (e.g., P11 column produced by Whatman). The fraction eluted at an NaCl concentration of 0.1 to 0.3 M was recovered to perform precipitation and concentration using ammonium sulfate. […] The yield and concentration of the tau thus obtained were analyzed by Coomassie Brilliant Blue (CBB) staining after the product was subjected to electrophoresis using 10% polyacrylamide gel.
(§2) The dried and purified recombinant tau sample was dissolved in purified water at a concentration of 0.9 mg/ml. […] Next, their fluorescence value (under excitation light at 360 nm and fluorescent light at 465 nm) was measured with a fluorescent plate reader (infinit F200 produced by TECAN). Thereafter, heparin was added so that the concentration would be 60 μg/ml and then incubation was carried out at 37° C. in a moisture retention box to measure a variation in fluorescence value with time. […]

T1 sequence (P10636 1-383 isoform P10636-6): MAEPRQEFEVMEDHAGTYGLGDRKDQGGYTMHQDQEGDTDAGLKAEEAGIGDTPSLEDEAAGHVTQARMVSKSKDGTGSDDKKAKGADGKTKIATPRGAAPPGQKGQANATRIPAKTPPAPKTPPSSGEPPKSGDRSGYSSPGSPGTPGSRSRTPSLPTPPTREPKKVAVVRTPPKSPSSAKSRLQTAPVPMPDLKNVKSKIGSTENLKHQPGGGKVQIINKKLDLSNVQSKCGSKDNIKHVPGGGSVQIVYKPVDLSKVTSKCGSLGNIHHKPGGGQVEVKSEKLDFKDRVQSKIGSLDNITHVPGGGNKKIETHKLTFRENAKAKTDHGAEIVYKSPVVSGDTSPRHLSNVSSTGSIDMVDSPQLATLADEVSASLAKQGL

SMILES	quantity of the tau recovered in Fraction 3 (oligomer tau)	quantity of the tau recovered in Fractions 4 and 5 (fibrosed tau)
CC(C)NCC(O)c1ccc(O)c(O)c1 (stereo not shown) [isoproterenol]	also seen to decrease	seen to decrease significantly

Biological target: T1, human-type tau 0N4R isoform (recombinant tau)
Test: quantity of sarcosyl insoluble tau by electrophoresis after 168 hours incubation
Assay type: biochemical
Details: incubation for 168 hours; 0.1-100 μM
Protocol: as §1, §2

SMILES	inhibition of tau polymerization (sarcosyl insoluble tau), concentration dependence
CC(C)NCC(O)c1ccc(O)c(O)c1 (stereo not shown) [isoproterenol]	inhibited the tau polymerization depending on the concentration

Biological target: T1, human-type tau 0N4R isoform (recombinant tau)
Test: tau aggregation inhibition experiment, thioflavin T fluorescence (heparin-induced)
Assay type: biochemical
Details: 1 μM compound, compared to 1 μM isoproterenol under the same incubation condition
Protocol: First of all, a plasmid expressing human-type tau 0N4R isoform (383 amino acid) was introduced into E. coli BL21(DE3) strain to purify a recombinant tau. The purification was carried out by modifying the method of Taniguchi et al. (see Taniguchi et al., 2008, JBC, 280, 7614). A soluble fraction was prepared based on E. coli in which tau expression had been induced with isopropyl-β-thiogalactopyranoside, and then fractionation was carried out with a phosphocellulose column (e.g., P11 column produced by Whatman). The fraction eluted at an NaCl concentration of 0.1 to 0.3 M was recovered to perform precipitation and concentration using ammonium sulfate. The precipitate thus obtained was dissolved in a buffer containing 0.5 M of NaCl and 2% of 2-mercaptoethanol and then heated to 100° C. for five minutes. Then, the reactant was subjected to a centrifugation at 15,000×g for 15 minutes. The supernatant thus obtained was recovered and then subjected to precipitation and concentration with ammonium sulfate. The precipitate thus obtained was dissolved in a solution containing 20% of acetonitrile and 0.1% of formic acid so as to be purified using reversed phase HPLC (with a Cosmosil protein-R column produced by Nacalai Tesque). Fractions including full-length recombinant tau were mixed together and then the mixture thus obtained was dried with a freeze dryer to obtain a dried and purified recombinant tau sample. The yield and concentration of the tau thus obtained were analyzed by Coomassie Brilliant Blue (CBB) staining after the product was subjected to electrophoresis using 10% polyacrylamide gel.
The dried and purified recombinant tau sample was dissolved in purified water at a concentration of 0.9 mg/ml. […] Next, their fluorescence value (under excitation light at 360 nm and fluorescent light at 465 nm) was measured with a fluorescent plate reader (infinit F200 produced by TECAN). Thereafter, heparin was added so that the concentration would be 60 μg/ml and then incubation was carried out at 37° C. in a moisture retention box to measure a variation in fluorescence value with time. The incubation was carried out for 168 hours, the fluorescence value was measured, and then the reacted solution was recovered to prepare a sarcosyl insoluble fraction. The sarcosyl insoluble fraction was made to have a final concentration of 1% by adding an aqueous solution of 10% (one-tenth quantity of) sodium N-lauroylsarcosinate to the reacted solution recovered. The solution was subjected to incubation at 4° C. for 30 minutes and then subjected to a centrifugation at 100,000×g for 20 minutes to separate the supernatant and the precipitate from each other. With the supernatant fraction and the precipitate regarded as a soluble tau fraction and a sarcosyl insoluble fraction, respectively, the yield of tau was analyzed by electrophoresis using 10% polyacrylamide gel. Also, part of the reacted solution was fractionated by sucrose density-gradient centrifugation using the method of Maeda et al. (see Maeda et al., 2007, Biochemistry, 46, 3856). After the centrifugation, the reactant was fractioned into 1 to 6 according to density and the tau yield was analyzed by 10% polyacrylamide gel electrophoresis and Western blotting.
During screening, the concentration of the compound was supposed to be 1 μM and compared to the effect achieved by 1 μM of isoproterenol under the same incubation condition.

SMILES	tau polymerization inhibitory activity (thioflavin T activity)
Oc1ccc(C(O)CN2CCOCC2)cc1O (stereo not shown) [1-(3,4-dihydroxyphenyl)-2-morpholinoethanol]	somewhat higher tau polymerization inhibitory activity than isoproterenol and catechol
O=Cc1cccc(O)c1O [2,3-dihydroxybenzaldehyde]	also exhibited as high tau polymerization inhibitory activity
COc1ccc(CCN)cc1OC [2-(3,4-dimethoxy)ethylamine]	nor 2-(3,4-dimethoxy)ethylamine (indicated by 3,4-DMPT and represented by the following Chemical Formula (10)) exhibited any tau polymerization inhibitory activity
Cn1ccnc1C(O)CN (stereo not shown) [2-amino-1-(1-methyl-1H-imidazol-2-yl)ethanol]	none of these compounds exhibited the tau polymerization inhibitory activity
NCC(O)c1ccc(Cl)c(Cl)c1 (stereo not shown) [2-amino-1-(3,4-dichlorophenyl)ethanol]	No tau polymerization inhibitory activities
NCC(O)c1ccco1 (stereo not shown) [2-amino-1-(furan-2-yl)ethanol]	none of these compounds exhibited the tau polymerization inhibitory activity
NCC(O)c1cccnc1 (stereo not shown) [2-amino-1-(pyridine-3-yl)ethanol]	none of these compounds exhibited the tau polymerization inhibitory activity
NCC(O)c1ccccc1 (stereo not shown) [2-amino-1-phenylethanol]	No tau polymerization inhibitory activities
CC(=O)c1ccc(O)c(O)c1 [3,4-dihydroxyacetophenone]	as high tau polymerization inhibitory activity as isoproterenol and catechol
O=Cc1ccc(O)c(O)c1 [3,4-dihydroxybenzaldehyde]	exhibited no tau polymerization inhibitory activity
NCc1ccc(O)c(O)c1 [3,4-dihydroxybenzylamine]	as high tau polymerization inhibitory activity as isoproterenol and catechol
Nc1cccc(O)c1O [3-aminocatechol]	inhibited the tau polymerization as strongly as 4-aminocatechol did
COc1cccc(O)c1O [3-methoxycatechol]	also exhibited as high tau polymerization inhibitory activity
NCCCC(=O)Nc1ccc(O)c(O)c1 [4-(4-aminobutanoylamino) catechol]	decreased significantly to almost the same level as isoproterenol's
CC(C)CCN(CCC(C)C)c1ccc(O)c(O)c1 [4-(diisopentylamino) catechol]	decreased significantly to almost the same level as isoproterenol's
CC(C)CCNc1ccc(O)c(O)c1 [4-(isopentylamino) catechol]	intense tau polymerization inhibitory activity did not change
O=C(Nc1ccc(O)c(O)c1)N1CCOCC1 [4-(morpholinocarbonylamino) catechol]	intense tau polymerization inhibitory activity slightly decreased
O=C(CCl)c1ccc(O)c(O)c1 [4-chloroacetylcatechol]	somewhat higher tau polymerization inhibitory activity than isoproterenol and catechol
Oc1ccc(Cl)cc1O [4-chlorocatechol]	as high tau polymerization inhibitory activity as isoproterenol and catechol
COc1ccc(O)c(O)c1 [4-methoxycatechol]	did not affect 1,2,4-benzenetriol's intense tau polymerization inhibitory activity
CC(C)(C)c1ccc(O)c(O)c1 [4-tert-butylcatechol]	as high tau polymerization inhibitory activity as isoproterenol and catechol
COc1ccc(CCN)cc1OC [homoveratylamine]	Neither homoveratylamine (indicated by HV and represented by the following Chemical Formula (9)) nor 2-(3,4-dimethoxy)ethylamine (indicated by 3,4-DMPT and represented by the following Chemical Formula (10)) exhibited any tau polymerization inhibitory activity
